Eight molecules from US8669072B2, “Oxadiazoline ligands for modulating the expression of exogenous genes via an ecdysone receptor complex” (Intrexon Corporation, priority 2003, dated 2014) can be followed below.

One series addresses T1, Bombyx mori EcR (VBE) (Bombyx mori, UniProt P49881).
T1 construct: expressed in transfected cells; host or cells: Human HEK-293 cells, retrovirally infected, clone Z3
T1 sequence (P49881 86-606 limits assumed): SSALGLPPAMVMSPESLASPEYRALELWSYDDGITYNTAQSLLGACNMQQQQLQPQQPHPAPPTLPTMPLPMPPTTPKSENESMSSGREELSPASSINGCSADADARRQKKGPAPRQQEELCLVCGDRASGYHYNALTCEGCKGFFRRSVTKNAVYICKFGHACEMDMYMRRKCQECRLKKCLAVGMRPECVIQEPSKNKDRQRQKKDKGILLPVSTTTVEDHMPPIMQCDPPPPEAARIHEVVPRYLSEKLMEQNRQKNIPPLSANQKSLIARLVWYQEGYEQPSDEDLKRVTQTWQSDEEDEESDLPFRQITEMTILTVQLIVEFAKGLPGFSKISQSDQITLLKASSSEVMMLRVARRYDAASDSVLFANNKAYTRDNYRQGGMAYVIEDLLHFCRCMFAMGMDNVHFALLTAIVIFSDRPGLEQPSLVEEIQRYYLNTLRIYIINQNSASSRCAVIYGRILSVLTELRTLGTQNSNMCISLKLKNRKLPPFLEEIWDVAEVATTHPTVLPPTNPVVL
T1 sequence (P19793 1-462 partner): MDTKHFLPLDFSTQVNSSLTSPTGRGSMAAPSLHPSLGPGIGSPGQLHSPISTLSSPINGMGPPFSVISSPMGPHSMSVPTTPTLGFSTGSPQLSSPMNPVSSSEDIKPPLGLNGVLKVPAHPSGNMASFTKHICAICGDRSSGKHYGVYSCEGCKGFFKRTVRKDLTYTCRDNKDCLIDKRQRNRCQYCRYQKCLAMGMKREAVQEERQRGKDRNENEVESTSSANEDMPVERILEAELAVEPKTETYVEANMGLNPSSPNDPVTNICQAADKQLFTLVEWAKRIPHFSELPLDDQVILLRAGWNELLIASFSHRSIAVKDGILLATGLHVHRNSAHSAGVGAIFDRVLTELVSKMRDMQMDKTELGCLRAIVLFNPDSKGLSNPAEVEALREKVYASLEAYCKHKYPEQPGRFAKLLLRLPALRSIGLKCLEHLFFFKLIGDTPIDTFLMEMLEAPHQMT
In words: Z3 assay: β-galactosidase reporter gene induction in HEK-293 clone Z3 (CVBE / 6XEcRE LacZ). It is filed as cell-based. The settings on record: for Fold Induction Average, Z3 assay: 33 μM ligand, 48 h, RLU relative to DMSO; for fold induction at 33 µM: HEK293, 48 h, read-out: Fold Induction Average, Z3 assay; for Rel Max FI, Z3 assay: maximum fold induction relative to that of GS-E ligand.

Series [1] addresses CfEcR (CDEF)/CfUSP, GST fusion protein (Choristoneura fumiferana, UniProt O77240). Nature of the series: CfEcR (CDEF)/CfUSP GST fusion protein assay. The format is binding.
Another series relates to WFN (white fly). In words: Insect toxicity contact bioassay, WFN. It is filed as in vivo. The settings on record: for Insect Toxicity LC50, WFN: in vivo. Here is the method:
(§1) The compound to be evaluated was dissolved in an appropriate solvent, usually a mix of acetone, methanol, and water. Test solutions were made by serial dilution of a stock test solution with acetone, methanol, and water. Initial evaluations were made at one or more concentrations on one or more of the following insects:
(§2) Contact bioassays (green peach aphid, two-spotted spider mite, white fly) were conducted by applying a solution of the test compound to the inside surface of a Petri dish. The solution was allowed to air-dry, then each dish was infested and the larvae from each treatment were transferred to a bioassay tray. The trays were held for one to seven days, and the mortality rating was determined for each treatment.

The target in series [2] is T2, GAL4 DBD (1-147)-CfEcR(DEF)/VP16AD-βRXREF-LmUSPEF (Choristoneura fumiferana, UniProt O77240).
T2 construct: The wild-type D, E, and F domains from spruce budworm Choristoneura fumiferana EcR (“CfEcR-DEF”)
In words: cell-based. The settings on record: for Rel Max FI, 27-63 assay: maximum fold induction relative to that of GS-E ligand; for fold induction at 33.3 µM: 48 h, read-out: Fold Induction Average, 27-63 assay. The method, boiled down:
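CHO clone stably carrying the GAL4-DBD–spruce budworm EcR(DEF) and VP16–RXR/USP chimeric receptor with a GAL4-responsive luciferase reporter; ligand added from DMSO stock diluted 300-fold.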

The test system of series [3] is MTA (two-spotted spider mite). In words: Insect toxicity contact bioassay, MTA. It is filed as in vivo. The settings on record: for Insect Toxicity LC50, MTA: in vivo. The procedure: as §1, §2
Series [4] has as its target T3, GAL4 DBD-CfEcR(DEF)/VP16AD-MmRXRE (Choristoneura fumiferana, UniProt O77240).
T3 construct: The wild-type D, E, and F domains from spruce budworm Choristoneura fumiferana EcR (“CfEcR-DEF”)
Nature of the series: 13B3 assay: luciferase reporter gene induction in stable CHO clone 13B3. It is filed as cell-based. The settings on record: for fold induction at 33.3 µM: read-out: Fold Induction Average, 13B3 assay; for Rel Max FI, 13B3 assay: maximum fold induction relative to that of GS-E ligand. The method, boiled down: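 Stable CHO clone 13B3 co-expressing GAL4 DBD-CfEcR(DEF) and VP16AD-MmRXRE with a GAL4 RE-luciferase reporter; ligands from DMSO stocks diluted 300-fold. Luciferase read by luminescence 48 h after treatment, duplicate wells averaged. Fold induction = RLU treated/RLU DMSO; EC50 from three-parameter logistic fit.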
Background: Reporter assays use an easily measured gene product as a stand-in for the process of interest.

The subject of the next series is Cabbage Looper. Nature of the series: Insect toxicity feeding bioassay, CL. The format is in vivo. The settings on record: for Insect Toxicity LC50, CL: in vivo. Here is the method: as §1
(§3) Feeding bioassays were conducted in bioassay trays containing insect diet. Treatments were made by applying 50 μL of test solution to the surface of the diet in each of 5 wells. After the test solution dried, each well was infested with a single neonate larva. The trays were held for six days and then the mortality rating was determined for each treatment.

In another series the test system is Tobacco Budworm. Nature of the series: Insect toxicity bioassay, TBW. It is filed as in vivo. The settings on record: for Insect Toxicity LC50, TBW: in vivo. Here is the method: as §1, §3
Some of the tobacco budworm tests were conducted as follows. A test solution containing 600 ppm was made by dissolving a compound of the invention in a 1:1 acetone:methanol solution, then adding water to give a 5:5:90 acetone:methanol:water solution, and finally a surfactant was added at an equivalent of 7.37 g of surfactant per 100 L of test solution (1 ounce of surfactant per 100 gallons of test solution). Appropriate dilutions were prepared in water from the 600 ppm solution. A detached cotton leaf, Gossypium hirsutum was placed on moistened filter paper in a Petri dish (100×20 mms). The leaf was sprayed with the test solution using a rotating turntable sprayer and allowed to dry. The dish was infested with 10 first instar larvae of the tobacco budworm and covered with the lid. If the larvae were alive two days after treatment, fresh untreated cotton leaves were added. All treatments were maintained at 23.9-26.7° C. (75-80° F.) under fluorescent light in a well-ventilated room. Percent mortality was determined at four days after treatment.

In another series the test system is Beet Armyworm. In words: Insect toxicity feeding bioassay, BAW. The following applies: for Insect Toxicity LC50, BAW: in vivo. The format is in vivo. Here is the method: as §1, §3
Setting [5] is: GST fusion protein, read-out: CfEcR EC50.

Like-named read-outs stand apart in the source and are kept apart here.

Chain of CfEcR (CDEF)/CfUSP, GST fusion protein (O77240 entry or part of it): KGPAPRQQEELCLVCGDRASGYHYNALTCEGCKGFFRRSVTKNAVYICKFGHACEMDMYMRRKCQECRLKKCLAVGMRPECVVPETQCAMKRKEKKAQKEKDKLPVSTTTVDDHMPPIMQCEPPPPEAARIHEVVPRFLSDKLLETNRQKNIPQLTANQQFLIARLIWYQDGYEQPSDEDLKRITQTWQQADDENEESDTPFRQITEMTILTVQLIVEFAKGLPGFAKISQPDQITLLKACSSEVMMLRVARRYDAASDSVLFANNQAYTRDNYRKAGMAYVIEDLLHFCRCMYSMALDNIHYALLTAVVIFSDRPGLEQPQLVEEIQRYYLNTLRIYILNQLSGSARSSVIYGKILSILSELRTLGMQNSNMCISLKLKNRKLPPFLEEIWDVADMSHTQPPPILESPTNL
Chain of CfEcR (CDEF)/CfUSP, GST fusion protein (O76202 whole entry, further chain, the tested form may be a part): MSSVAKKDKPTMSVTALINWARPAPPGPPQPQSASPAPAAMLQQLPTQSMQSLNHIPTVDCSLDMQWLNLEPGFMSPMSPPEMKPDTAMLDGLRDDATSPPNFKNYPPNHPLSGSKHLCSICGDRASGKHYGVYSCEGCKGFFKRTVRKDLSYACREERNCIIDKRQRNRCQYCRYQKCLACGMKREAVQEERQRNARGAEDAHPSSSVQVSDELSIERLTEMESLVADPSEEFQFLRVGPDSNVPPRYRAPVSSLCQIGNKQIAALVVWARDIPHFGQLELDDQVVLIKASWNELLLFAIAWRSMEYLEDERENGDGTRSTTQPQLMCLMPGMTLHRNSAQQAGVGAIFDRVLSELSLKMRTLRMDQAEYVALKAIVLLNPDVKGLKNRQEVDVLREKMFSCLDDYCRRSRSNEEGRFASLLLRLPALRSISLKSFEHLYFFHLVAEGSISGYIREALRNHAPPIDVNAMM

As for `CCc1c(OC)cccc1C(=O)NN1C(c2cc(C)cc(C)c2)=NOC12CCOCC2` [RG-120008], on Bombyx mori EcR (VBE), the “Fold Induction Average, Z3 assay” value is recorded as 567.3. In addition, the “CfEcR % @ 1 uM” value in [1] came out at 81% @ 1 uM.

In the case of `CCC1(C)ON=C(c2cc(C)cc(C)c2)N1NC(=O)Nc1ccccc1` (centres unmarked) [RG-120051], in series [1] (setting [5]), the EC50 (commonly the concentration at which the effect is half-maximal) is 147 nM.

With `CCc1ccc(C(=O)NN2C(c3cc(C)cc(C)c3)=NOC2(C)C)cc1` [RG-120060], the “Insect Toxicity % control @ 150 ppm, WFN” value with WFN (white fly) turned out to be 0% @ 150. In [2], the EC50 was over 33000 nM and the “Rel Max FI, 27-63 assay” value was found to be 0.01. Besides, the fold induction at 33 µM on Bombyx mori EcR (VBE) worked out at 108. The Kd (usually the free concentration of one partner at which half of the binding sites on the other are occupied at equilibrium, for simple one-to-one binding) in series [1] (GST fusion protein, read-out: CfEcR Kd) worked out at 38 nM. Besides, in series [3], the “Insect Toxicity % control @ 150 ppm, MTA” value came to 0% @ 150. The fold induction at 33.3 µM in series [4] (48 h) was found to be 16.8. In addition, the “Insect Toxicity LC50, CL” value in the series with Cabbage Looper is listed as 47 ppm. For the same molecule, the “Insect Toxicity LC50, TBW” value with Tobacco Budworm is over 150 ppm. Moreover, the “Insect Toxicity LC50, BAW” value in the series on Beet Armyworm is 23 ppm.

Take `CCc1c(OC)cccc1C(=O)NN1C(c2cc(C)cc(C)c2)=NOC1(C)CC` (centres unmarked) [RG-120069]: the “Insect Toxicity LC50, WFN” value in the series on WFN (white fly) is given as over 150 ppm. The EC50 was determined as 3310 nM in series [2], 1680 nM at Bombyx mori EcR (VBE), 14.2 nM in series [1] and 2950 nM in series [4]. Besides, the fold induction at 33.3 µM came out at 1870 in series [2] and 478 in [4] (48 h). Moreover, the “Rel Max FI, 27-63 assay” value in [2] amounted to 1.11. At Bombyx mori EcR (VBE), the “Rel Max FI, Z3 assay” value was 0.8. For the same molecule, the “Insect Toxicity LC50, MTA” value in [3] is on record as 146 ppm. In [4], the “Rel Max FI, 13B3 assay” value amounted to 1.02. Also, the “Insect Toxicity LC50, CL” value in the series on Cabbage Looper worked out at 4.7 ppm. Further, the “Insect Toxicity LC50, TBW” value in the series with Tobacco Budworm is reported as over 150 ppm. Further, in the series with Beet Armyworm, the “Insect Toxicity LC50, BAW” value was 4.7 ppm.

As to `CCc1c(OC)cccc1C(=O)NN1C(c2ccccc2)=NOC1(C)CC` (centres unmarked) [RG-120076], in the series with WFN (white fly), the “Insect Toxicity LC50, WFN” value is over 150 ppm. In series [2], the EC50 was about 20000 nM; the fold induction at 33.3 µM stood at 4090; the “Rel Max FI, 27-63 assay” value is recorded as 1.4. Further, at Bombyx mori EcR (VBE), the half-maximal effective concentration (EC50) turned out to be 12400 nM; the fold induction at 33 µM worked out at 0.2; the “Rel Max FI, Z3 assay” value was 0.9. Also, the EC50 in series [1] stood at 8.35 nM. Further, in series [3], the “Insect Toxicity LC50, MTA” value is on record as 92 ppm. Further, in series [4], the EC50 is over 33300 nM and the “Rel Max FI, 13B3 assay” value was determined as 0.05. Moreover, the fold induction at 33.3 µM in series [4] (48 h) amounted to 20.2. Also, the “Insect Toxicity LC50, CL” value in the series on Cabbage Looper worked out at 47 ppm. In the series with Tobacco Budworm, the “Insect Toxicity LC50, TBW” value was over 150 ppm. Further, the “Insect Toxicity LC50, BAW” value with Beet Armyworm was 47 ppm.

Regarding `CCOC(=O)CCC(=O)NN1C(c2cc(C)cc(C)c2)=NOC1(C)CC` (centres unmarked) [RG-120126], the “Insect Toxicity % control @ 150 ppm, WFN” value in the series with WFN (white fly) was 79% @ 150. In addition, on Bombyx mori EcR (VBE), the EC50 is over 50000 nM; the fold induction at 33 µM was 2.4; the “Rel Max FI, Z3 assay” value is given as 0.04. For the same molecule, the EC50 in [1] (setting [5]) stood at 136 nM. Also, in series [3], the “Insect Toxicity % control @ 150 ppm, MTA” value is 0% @ 150. Besides, in [4], the EC50 was over 33300 nM and the “Rel Max FI, 13B3 assay” value was determined as 0. Also, the fold induction at 33.3 µM in series [4] (48 h) was 0.4. Also, the “Insect Toxicity % control @ 150 ppm, CL” value in the series on Cabbage Looper (150 ppm) turned out to be 0% @ 150. Further, the “Insect Toxicity % control @ 150 ppm, TBW” value in the series on Tobacco Budworm (150 ppm) is on record as 0% @ 150. In addition, the “Insect Toxicity % control @ 150 ppm, BAW” value with Beet Armyworm (150 ppm) is given as 0% @ 150.

Regarding `Cc1cc(C)cc(C2=NOC3(CCCC3)N2NC(=O)c2cc3ccccc3s2)c1` [RG-120152], on Bombyx mori EcR (VBE), the “Fold Induction Average, Z3 assay” value is reported as 59.9. Besides, the “CfEcR % @ 1 uM” value in series [1] is 92% @ 1 uM. The “Fold Induction Average, 13B3 assay” value in [4] (33/33.3 μM ligand, 48 h, RLU relative to DMSO) came out at 264.3.

For the molecule `CCC1(C)ON=C(c2cc(C)cc(C)c2)N1NC(=O)c1cc2ccccc2s1` (centres unmarked) [RG-120161], the “Insect Toxicity LC50, WFN” value in the series on WFN (white fly) was over 150 ppm. Besides, the values for the EC50 (at Bombyx mori EcR (VBE); in series [1]; in series [4]) were 2140 nM, 62.4 nM and 3460 nM, respectively. Also, the “Rel Max FI, Z3 assay” value at Bombyx mori EcR (VBE) stood at 0.08. Besides, the “Insect Toxicity LC50, MTA” value in series [3] came out at 110 ppm. In [4] (48 h), the fold induction at 33.3 µM came out at 59.9. In [4], the “Rel Max FI, 13B3 assay” value came to 0.14. Further, the “Insect Toxicity LC50, CL” value in the series on Cabbage Looper worked out at 17 ppm. Further, the “Insect Toxicity LC50, TBW” value in the series on Tobacco Budworm is on record as over 150 ppm. The “Insect Toxicity LC50, BAW” value in the series with Beet Armyworm is reported as 87 ppm.
